Experimental data taken from patent publication US9408852B2, “Method of lowering serum uric acid levels with (S)-tofisopam” (PHARMOS CORPORATION, priority 2011, dated 2016).
“And” between values parts separate entries of the source, which are not always exact repeats. Identical values can stand only once.

Columns and labels:
xanthine oxidase = xanthine oxidase (Homo sapiens, UniProt P47989); experiment: Xanthine oxidase inhibition; assay type: biochemical; conditions: unlike allopurinol
clearance creatinine = experiment: Creatinine clearance in patients with hyperuricemia and gout (Example 9); assay type: in vivo, human; conditions: 50 mg qd Day 1 and 7, tid Days 2 to 6
Experimental: The study lasted 7 days, and patients were treated with placebo or 50 mg of enantiomerically-pure (S)-tofisopam once a day (qd) on Day 1 and Day 7 of the study, and with placebo or 50 mg of enantiomerically-pure (S)-tofisopam three times a day (tid) for Days 2 to 6 of the study. […] In Table 8, days indicated with a minus sign (e.g. D-1) indicate the time point corresponding to that number of days before treatment was initiated. For example, D-14 is the time point fourteen days before treatment was initiated.

Chain of xanthine oxidase (P47989 whole entry, species assumed): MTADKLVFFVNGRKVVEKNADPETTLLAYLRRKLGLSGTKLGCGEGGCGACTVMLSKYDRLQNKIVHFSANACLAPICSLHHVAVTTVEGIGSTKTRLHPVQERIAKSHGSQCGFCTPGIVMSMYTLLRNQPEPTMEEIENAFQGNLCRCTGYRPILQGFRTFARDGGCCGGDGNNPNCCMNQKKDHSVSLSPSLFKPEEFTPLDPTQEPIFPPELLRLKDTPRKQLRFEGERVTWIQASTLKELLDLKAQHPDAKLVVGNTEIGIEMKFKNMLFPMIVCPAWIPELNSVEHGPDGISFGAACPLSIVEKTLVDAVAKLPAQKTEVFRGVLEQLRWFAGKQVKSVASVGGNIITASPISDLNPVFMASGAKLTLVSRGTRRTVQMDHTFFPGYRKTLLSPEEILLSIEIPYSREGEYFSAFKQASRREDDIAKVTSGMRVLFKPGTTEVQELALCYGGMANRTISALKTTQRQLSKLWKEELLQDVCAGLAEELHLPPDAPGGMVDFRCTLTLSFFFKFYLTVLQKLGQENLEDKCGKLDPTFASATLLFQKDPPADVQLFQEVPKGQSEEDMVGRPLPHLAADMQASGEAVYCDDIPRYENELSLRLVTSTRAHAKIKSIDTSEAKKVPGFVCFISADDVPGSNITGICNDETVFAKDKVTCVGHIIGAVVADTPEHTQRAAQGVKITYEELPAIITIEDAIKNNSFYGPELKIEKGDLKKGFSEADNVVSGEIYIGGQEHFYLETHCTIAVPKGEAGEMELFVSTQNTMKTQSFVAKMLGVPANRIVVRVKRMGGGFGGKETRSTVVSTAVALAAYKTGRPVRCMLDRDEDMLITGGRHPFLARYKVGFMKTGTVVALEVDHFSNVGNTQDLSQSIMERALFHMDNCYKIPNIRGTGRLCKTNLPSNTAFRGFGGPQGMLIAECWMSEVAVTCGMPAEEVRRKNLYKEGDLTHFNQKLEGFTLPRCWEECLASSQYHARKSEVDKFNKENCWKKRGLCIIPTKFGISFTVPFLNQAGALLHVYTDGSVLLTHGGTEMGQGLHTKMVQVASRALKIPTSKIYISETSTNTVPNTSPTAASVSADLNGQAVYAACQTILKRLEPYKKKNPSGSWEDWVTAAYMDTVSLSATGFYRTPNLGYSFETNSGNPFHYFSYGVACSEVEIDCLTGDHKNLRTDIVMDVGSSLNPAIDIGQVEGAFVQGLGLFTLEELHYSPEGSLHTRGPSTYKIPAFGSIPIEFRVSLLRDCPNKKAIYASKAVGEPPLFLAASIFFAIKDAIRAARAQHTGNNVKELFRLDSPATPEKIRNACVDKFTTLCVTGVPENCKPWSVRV

Question: How did the “Inhibition of xanthine oxidase” value (xanthine oxidase) turn out when `CC[C@@H]1C(C)=NN=C(c2ccc(OC)c(OC)c2)c2cc(OC)c(OC)cc21` [(S)-tofisopam] was run?
Answer: Its value is “does not inhibit”.

Question: And the “Percent change in CLc (clearance creatinine)” value (“Percent change in CLc” for short) (clearance creatinine; individual patient (P#), [D 1 to D 2] from [D −2 to D −1])?
Answer: Its value is 35.1% and 2.5% and −24.4% and −14.2% and 16.2% and −22.4% and 0.7% and −4.1% and −2.7% and −1.3% and −11.8% and 11.2%.

Question: What about the “Percent change in CLc” value (clearance creatinine; individual patient (P#), [D 6 to D 7] from [D 1 to D 2]) of the same compound?
Answer: Its value is −12.7% and 15.2% and 21.1% and 14.0% and 8.9% and 0.0% (2×) and −3.9% and 14.3% and 0.7% and −23.7%.

Question: What about the “Percent change in CLc” value (clearance creatinine; mean (M) of patients, [D 1 to D 2] from [D −2 to D −1]) of the same compound?
Answer: The value was −1.3%.

Question: What about the “Percent change in CLc” value (clearance creatinine; mean (M) of patients, [D 6 to D 7] from [D 1 to D 2]) of the same compound?
Answer: Its value is 3.1%.
